# Experimental data: patent US12286402B2, “Compounds and their use for the treatment of alpha1-antitrypsin deficiency” (CENTESSA PHARMACEUTICALS (UK) LIMITED, priority 2019, dated 2025)
# Target: T1, human Z A1AT (Homo sapiens, UniProt P01009, E366K)
# T1 construct: expressed in transfected cells; host or cells: HEK-Z cells (human embryonic kidney cell line stably transfected with the human Z A1AT gene)
# Assay: A1AT cell secretion assay using HEK-Z cells (A1AT ELISA of supernatants)
# Assay type: cell-based
# Conditions: 48 h, supernatant A1AT by ELISA
# Procedure: HEK-Z cells, a human embryonic kidney cell line stably transfected with the human Z A1AT gene, were plated into 96 well plates (3.0×10^5 cells/ml with 200 μl of media/well) overnight at 37° C. in a humidified atmosphere containing 5% CO2. Following incubation cells were washed with 200 μl serum-free media three times and media was replaced with treatments in quadruplicate using serum free media containing either vehicle, 10 μM suberanilohydroxamic acid (SAHA) or a compound of the invention (at concentrations of 10, 33, 100 and 333 nM) for 48 h in a 37° C. incubator in a final volume of 200 μl. At the end of the incubation step the supernatants were removed from the wells, centrifuged at 1000×g at 4° C. for 10 min and were assayed for human A1AT levels by ELISA (Human Serpin A1/α1-antitrypsin duo set ELISA, R& D Systems, DY1268) per manufacturer's instructions.
# Briefly, a 96 well plate was coated with human A1AT capture antibody overnight at room temperature (1:180 dilution from stock, 100 μl final volume/well). The capture antibody was then removed and wells washed three times with 300 μl wash buffer (0.05% Tween 20 in PBS) and then 200 μl reagent diluent ([…]) was incubated in each well for 1 h at room temperature. Diluted samples, standards (125, 250, 500, 1000, 2000, 4000 and 8000 pg/ml A1AT) or blanks were then added to each well in duplicate and the plates were covered with a plate sealer and left at room temperature for 2 h. At the end of the sample incubation step, samples were removed and all wells washed as previously and 100 μl detection antibody (1:180 dilution from stock) was added to each well and incubated for a further 2 h at room temperature. Following incubation with detection antibody, supernatant was removed and wells were washed as previously and 100 μl streptavidin-HRP solution (1:200 dilution from stock) was added to each well for 20 min in the dark. After which, 50 μl stop solution (2M H2SO4) was added and optical density (OD) of each well was read at 450 nm with 570 nm blank subtracted from each well using a microplate reader. A 4 parameter logistic curve was constructed using GraphPad Prism 7 and A1AT concentrations were determined in each sample by interpolation from a standard curve and multiplying by the appropriate dilution factor.
# T1 sequence (P01009 25-418 E366K): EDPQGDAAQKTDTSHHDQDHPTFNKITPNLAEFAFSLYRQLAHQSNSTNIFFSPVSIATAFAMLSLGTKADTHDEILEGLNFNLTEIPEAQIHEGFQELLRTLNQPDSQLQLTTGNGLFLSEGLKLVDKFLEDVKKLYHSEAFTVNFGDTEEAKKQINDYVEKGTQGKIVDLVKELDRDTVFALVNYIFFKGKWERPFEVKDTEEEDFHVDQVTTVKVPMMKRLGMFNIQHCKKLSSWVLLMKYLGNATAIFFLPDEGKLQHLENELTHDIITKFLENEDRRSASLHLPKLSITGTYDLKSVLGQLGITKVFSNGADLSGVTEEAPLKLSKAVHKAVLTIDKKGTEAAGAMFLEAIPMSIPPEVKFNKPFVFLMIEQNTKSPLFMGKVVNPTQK
row,Structure (SMILES),Median A1AT % increase over vehicle at 300 nM [%]
1,"CN(C)C(=O)c1ccc(Cn2ccccc2=O)cc1 [Example 1, N,N-dimethyl-4-((2-oxopyridin-1(2H)-yl)methyl)benzamide]",125
2,"CCN(C)C(=O)c1ccc(Cn2ccccc2=O)cc1 [Example 2, N-ethyl-N-methyl-4-((2-oxopyridin-1(2H)-yl)methyl)benzamide]",147
3,"CC(C)N(C)C(=O)c1ccc(Cn2ccccc2=O)cc1 [Example 3, N-isopropyl-N-methyl-4-((2-oxopyridin-1(2H)-yl)methyl)benzamide]",134

# Continued, values first:
row,Median A1AT % increase over vehicle at 300 nM [%],Structure (SMILES)
1,142,"CN(Cc1ccccc1)C(=O)c1ccc(Cn2ccccc2=O)cc1 [Example 4, N-benzyl-N-methyl-4-((2-oxopyridin-1(2H)-yl)methyl)benzamide]"
2,129,"CN(CC(F)(F)F)C(=O)c1ccc(Cn2ccccc2=O)cc1 [Example 5, N-methyl-4-((2-oxopyridin-1(2H)-yl)methyl)-N-(2,2,2-trifluoroethyl)benzamide]"
